7 compounds from ChEMBL document CHEMBL5726647, “Isoquinoline derivatives useful as inhibitors of diacylglyceride O-acyltransferase 2” (2017) can be followed below.

For the experiment, the target named is T1, Diacylglycerol O-acyltransferase 2 (Homo sapiens, UniProt Q96PD7).
T1 sequence (Q96PD7 whole entry): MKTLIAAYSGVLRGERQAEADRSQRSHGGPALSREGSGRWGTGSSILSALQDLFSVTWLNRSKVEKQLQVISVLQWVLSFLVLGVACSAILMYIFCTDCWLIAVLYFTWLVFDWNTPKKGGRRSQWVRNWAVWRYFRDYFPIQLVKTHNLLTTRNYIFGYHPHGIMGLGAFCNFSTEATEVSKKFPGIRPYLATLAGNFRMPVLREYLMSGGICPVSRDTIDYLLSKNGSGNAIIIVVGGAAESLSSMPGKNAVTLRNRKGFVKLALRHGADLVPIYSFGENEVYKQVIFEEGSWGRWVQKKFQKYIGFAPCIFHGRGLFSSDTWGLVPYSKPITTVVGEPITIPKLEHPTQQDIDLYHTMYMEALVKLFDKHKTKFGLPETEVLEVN
The experiment in a line: Enzymatic Activity Assay: DGAT2 activity was determined by measuring the amount of enzymatic product triolein (1,2,3-Tri(cis-9-octadecenoyl)glycerol) using the membrane prep mentioned above.The assay was carried out in deep well 384 plates in a final volume of 40 μL at room temperature. The assay mixture contained the following: assay buffer (100 mM Tris.Cl, pH 7.0, 20 mM MgCl2, 5% ethanol), 25 μM of diolein, 10 μM of oleoyl-CoA and 10 ng/μL of DGAT2 membrane.
For the compound `COC(=O)c1cccc(-c2ccc(CNC(=O)Nc3cccc(Cl)c3Cl)c3cnccc23)c1`, the IC50 (as a rule, the concentration that inhibits the measured activity by half) is 1.96 µM.
Take `COc1cccc(-c2ccc(CNC(=O)Cc3ccccc3Cl)c3cnccc23)c1`: the IC50 was 1.99 µM.
With `COc1cccc(-c2ccc(CNC(=O)c3ccccc3CN3C=C(O)ON3)c3cnccc23)c1` the figure was 4.2 µM.
The result for `COc1cccc(-c2ccc(CNC(=O)c3ncc(Br)cn3)c3cnccc23)c1` reads 3.39 µM; that for `CCOC(=O)CCc1ccc(CNC(=O)Nc2cccc(Cl)c2Cl)c2cnccc12`, 7.61 µM; that for `COc1cccc(-c2ccc(CNC(=O)Nc3cccc(Cl)c3Cl)c3ncccc23)c1`, 9.02 µM.
Regarding `COc1cccc(-c2ccc(CNC(=O)Cc3cncc(Br)c3)c3cnccc23)c1`, the IC50 came out at 7.13 µM.
